Assays:
[1] = tested on: normal lung fibroblasts (NLF); assay: CSD peptide treatment of NLF, Western blotting; type: cell-based, human
Source text: Fibroblasts were derived from lung tissue obtained at autopsy from scleroderma patients (SLF) and from age-, race-, and sex-matched normal subjects (NLF) and cultured as previously described (44). Cells were used in passages 2-4. The group of scleroderma patients fulfilled the criteria of American college of Rheumatology for the diagnosis of scleroderma with lung involvement. Normal human lung tissue was obtained from the Brain and Tissue Bank for Developmental Disorders (Baltimore, Md.) or from the National Disease Research Interchange (Philadelphia, Pa.). Scleroderma lung tissue was obtained from the Division of Pathology and Laboratory Medicine at the Medical University of South Carolina (MUSC). The study was approved by the Institutional Review Board for Human Subject Research at the MUSC.
The CSD peptide (amino acids 82-101 of caveolin-1; […]) (SEQ ID NO: 1) and a scrambled control peptide ([…]) (SEQ ID NO: 2) were synthesized as fusion peptides to the C terminus of the Antennapedia internalization sequence (RQIKUVFQNRRMKWKK) (SEQ ID NO: 3). Before each experiment, desiccated peptides were dissolved at a final 1 mM in 10% DMSO as described by Bernatchez et al. (4). Cells in 6-well plates at 70-80% confluence were then incubated with 1 ml serum-free DMEM containing […] CSD or scrambled peptide. After 6 h, the culture medium and cell layer were harvested.
Cell layers were harvested in boiling SDS-PAGE sample buffer; medium was dialyzed, lyophilized, and resuspended in sample buffer. Aliquots of culture medium or of cell layer representing material derived from the same number of cells was probed using the following primary antibodies and appropriate secondary antibodies. Culture medium: goat anti-human collagen I (AB758P) and rabbit anti-human tenascin-C (AB19011) from Chemicon International (Temecula, Calif.). Cell layer: rabbit antibodies against PKCα (sc-208), PKCε (sc-214), activated JNK (sc-12882), activated Akt Thr 308 (sc-166646R) and caveolin-1 (sc-894) from Santa Cruz Biotechnology (Santa Cruz, Calif.); rabbit antibodies against ERK 1/2 (9102), activated ERK 1/2 (9106), JNK (9252), Akt (9272), MEK 1/2 (9122), and activated MEK 1/2 (9121) from Cell Signaling (Beverly, Mass.); mouse monoclonal anti-ASMA (clone 1A4) from Sigma (Saint Louis, Mo.), and mouse monoclonal anti-actin (MAB1501) from Chemicon International (Temecula, Calif.).
Immunoreactive bands were quantified by densitometry using the Image 1.32J NIH software. For statistical analysis the raw densitometric data were processed and analyzed using the Prism 3.0 (GraphPad Software Inc.) statistical analysis software.

[2] = tested on: bleomycin-induced lung fibrosis; assay: Bleomycin-induced lung fibrosis and CSD treatment in mice; type: in vivo, mouse
Protocol: Extract from each mouse was analyzed by Western blotting (25 μg total protein per lane) using antibodies against ph-ERK, caveolin-1, PKCε, ASMA, PKCα, tenascin-C, ph-Akt, ph-JNK, and actin (loading control); and the results quantified densitometrically (averages±s.e.m. are shown). The level of each protein in “Saline” was set to 100 arbitrary units. Actin levels (loading control) were similar in all four samples (not shown). Statistical significance: ns, not significant; **p<0.01; ***p<0.001.
Masson's Trichrome-stained sections from the experiments described in FIG. 11 were used to evaluate the effects of bleomycin and the CSD peptide on collagen expression (blue product) and lung tissue morphology. […] To generate the table, Masson's Trichrome-stained slides of lung tissue from all 41 mice sacrificed 14 days after saline or bleomycin treatment were scored blind in terms of the portion of the lung with abnormal morphology using an arbitrary scale: Normal morphology as in A=0, slightly altered morphology as in B=1, moderately altered morphology as in C=2, and severely altered morphology as in D 3. Bar in C=0.1 mm.
This procedure was approved by the MUSC Institutional Animal Care & Use Committee. Ten-week old, male CD 1 mice (Charles River, Boston, Mass.) were anesthetized and received bleomycin (Calbiochem, La Jolla, Calif.) or saline solution by intratracheal instillation as previously described (44). Two approaches were used for CSD peptide treatment. In both approaches the peptide treatment was initiated one day prior to bleomycin. In the first approach, Alzet pumps delivering 0.5 μl/h for 14 days of a 1 mM solution of CSD peptide were implanted into twelve mice; twelve additional mice received no pump. In the second approach twelve mice received daily intraperitoneal injections of 100 μl of a 0.15 mM solution of the CSD peptide for 14 days; twelve additional mice received the scrambled peptide. One day later, six mice from each group of twelve received intratracheal bleomycin, six received saline. After 14 days, lungs were harvested. Half of each set of lungs was fixed, sectioned, and stained with Masson's Trichrome Stain. The other half of each set of lungs was dissolved in SDS-PAGE sample buffer for Western blotting experiments. Because very similar results were obtained using the two approaches to CSD peptide treatment, results were pooled.
Student's t test was used to analyze protein expression levels in lung tissue samples obtained from normal individuals and from scleroderma patients. Protein expression levels for samples obtained from in vitro experiments and from mice were analyzed by two-way analysis of variance (ANOVA) followed by the Bonferroni post-test. For experiments in which the degree of tissue damage in mice treated with bleomycin was scored on an arbitrary scale, data was analyzed using the Mann-Whitney rank sum test. In all tests, results were regarded as statistically significant if p<0.05.

[3] = CSD peptide vs scrambled peptide
[4] = mouse lung tissue, Western blotting, 14 days

DGIWKASFTTFTVTKYWFYR [CSD peptide]
time in which inhibition of collagen expression occurs ([1]; 5 μM CSD): less than 5 hours | decrease of MEK/ERK activation ([1]; 5 μM CSD peptide vs scrambled peptide): about 50% | inhibition of collagen expression ([1]; 5 μM CSD peptide vs scrambled peptide, collagen in culture medium, Western blotting): > 95% | activation of Akt ([1]; CSD peptide vs Scr peptide): inhibited | activation of JNK ([1]; CSD peptide vs Scr peptide): inhibited | expression of total MEK, total ERK, total Akt, or total JNK ([1]; CSD peptide vs Scr peptide): did not affect | expression of caveolin-1 itself, PKCα, or PKCε [1, 3]: did not affect | tenascin-C expression [1, 3]: inhibited | median weight loss ([2]; bleomycin-treated mice receiving peptide (30% in untreated mice)): 14 % of original weight | tissue damage and collagen deposition ([2]; bleomycin-treated mice, CSD peptide via Alzet pumps or intraperitoneal injection, 14 days, Masson's Trichrome): slight to moderate | survival and lung tissue morphology ([2]; bleomycin-treated mice, systemic treatment with the peptide): striking positive effect | expression of caveolin-1 itself ([2]; lung tissue of bleomycin-treated mice, Western blotting): did not affect | inhibition of bleomycin-induced decrease in PKCα [2, 4]: about 50% | inhibition of bleomycin-induced decrease in PKCε [2, 4]: at least 75% | inhibition of bleomycin-induced increase in ASMA [2, 4]: at least 75% | inhibition of bleomycin-induced increase in ph-Akt [2, 4]: at least 75% | inhibition of bleomycin-induced increase in ph-ERK [2, 4]: at least 75% | inhibition of bleomycin-induced increase in ph-JNK [2, 4]: at least 75% | inhibition of bleomycin-induced increase in tenascin-C [2, 4]: at least 75%

— patent US8058227B2, “Method of treating fibrosis in a subject in need thereof comprising administering a composition comprising a CSD” (Medical University of South Carolina, priority 2006, dated 2011)
